Measurements from US20150366862A1, “Use of flibanserin for the treatment of pre-menopausal sexual desire disorders” (Sprout Pharmaceuticals, Inc., priority 2005, published 2015).

How the values were obtained:
[1] = tested on: pre-menopausal female patients with HSDD; assay: twelve-week randomized, double-blind, placebo-controlled proof of concept trial in pre-menopausal female patients with HSDD (IVR-FSBQ); format: in vivo, human
Protocol: This trial was designed as a prospective, multi-center, twelve-week, randomized, double-blind, placebo-controlled, proof of concept, parallel-group trial comparing the effects of flibanserin (maximum total daily dose: 100 mg b.i.d.) to placebo in pre-menopausal female patients with HSDD. Seventy-five patients were to be randomized to each treatment group.
This proof of concept trial was designed to assess whether twelve weeks of flibanserin treatment produced a clinically meaningful therapeutic response in healthy female patients with HSDD (as determined by DSM-IV criteria). Efficacy for flibanserin was assessed versus a parallel placebo group.
After a Screening period (no treatment) of approximately twenty-eight days, eligible patients were randomized into the twelve week, double-blind portion of the trial during which they were to take study medication in the morning and in the evening about 12 hours apart.
Patients must have been pre-menopausal females who were 18 to 45 years of age with the primary diagnosis of HSDD, acquired type, according to DSM-IV criteria. The current episode must have been at least 24 weeks in duration by the Baseline Visit.
The baseline severity criterion was from the Arizona Sexual Experiences Scale, requiring a score of 5 or 6 (very weak or no sex drive) on the sex drive item. […]

[2] = molecular target: T1, 5-HT-1A receptor (Homo sapiens, UniProt P08908); settings: background statement, no value given; cited from earlier work
T1 sequence (P08908 1-422): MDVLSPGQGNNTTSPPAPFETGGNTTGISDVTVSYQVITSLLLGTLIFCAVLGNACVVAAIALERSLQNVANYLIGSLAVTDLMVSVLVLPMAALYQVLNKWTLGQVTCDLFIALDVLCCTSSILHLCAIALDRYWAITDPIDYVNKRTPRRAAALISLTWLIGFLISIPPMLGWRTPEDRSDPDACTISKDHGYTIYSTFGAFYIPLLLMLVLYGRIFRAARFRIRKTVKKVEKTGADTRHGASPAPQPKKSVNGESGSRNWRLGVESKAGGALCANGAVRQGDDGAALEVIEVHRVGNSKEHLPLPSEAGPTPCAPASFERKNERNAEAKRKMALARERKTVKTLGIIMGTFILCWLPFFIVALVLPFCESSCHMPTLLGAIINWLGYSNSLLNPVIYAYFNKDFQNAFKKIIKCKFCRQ

[3] = tested on: 5-HT2-receptor; settings: background statement, no value given; cited from earlier work

For `O=c1[nH]c2ccccc2n1CCN1CCN(c2cccc(C(F)(F)F)c2)CC1` [flibanserin, 1-[2-(4-(3-trifluoromethyl-phenyl)piperazin-1-yl)ethyl]-2,3-dihydro-1H-benzimidazol-2-one], the “IVR-FSBQ Frequency of Sexual Thoughts, monthly mean change from baseline vs placebo” value ([1]; pre-menopausal women with HSDD, 50 mg b.i.d. (up to 100 mg b.i.d. from Week 8), 12 weeks, FAS, LOCF, FIG. 1) is listed as “clearly demonstrates the efficacy”, the “sexual desire enhancing properties” value ([1]; studies of pre-menopausal female patients suffering from sexual dysfunction) is listed as “displays sexual desire enhancing properties” and the “affinity for the 5-HT-1A receptor” value [2] is listed as “shows affinity”. For the same compound, the “affinity for the 5-HT2-receptor” value [3] was “shows affinity”.
